The source of these data is patent US11046646B2, “Alkylphenyl compounds” (BRISTOL-MYERS SQUIBB COMPANY, priority 2017, dated 2021).

The structures appear in SMILES notation.

For orientation: EC50 means the concentration giving half of the maximal effect. Read a high EC50 as a less potent agent.

S1P1, sequence (P21453 whole entry): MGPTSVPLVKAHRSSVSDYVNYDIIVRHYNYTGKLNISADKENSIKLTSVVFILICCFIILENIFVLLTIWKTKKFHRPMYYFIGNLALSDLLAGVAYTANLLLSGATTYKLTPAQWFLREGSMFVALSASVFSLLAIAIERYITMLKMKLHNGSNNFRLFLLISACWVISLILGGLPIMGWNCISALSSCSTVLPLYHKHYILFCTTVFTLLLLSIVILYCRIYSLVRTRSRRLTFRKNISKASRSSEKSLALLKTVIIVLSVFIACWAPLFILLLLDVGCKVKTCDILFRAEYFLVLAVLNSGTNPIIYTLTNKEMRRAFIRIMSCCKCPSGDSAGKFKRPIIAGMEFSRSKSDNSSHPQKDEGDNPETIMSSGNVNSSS
S1P3 (EDG3), sequence (Q99500 whole entry): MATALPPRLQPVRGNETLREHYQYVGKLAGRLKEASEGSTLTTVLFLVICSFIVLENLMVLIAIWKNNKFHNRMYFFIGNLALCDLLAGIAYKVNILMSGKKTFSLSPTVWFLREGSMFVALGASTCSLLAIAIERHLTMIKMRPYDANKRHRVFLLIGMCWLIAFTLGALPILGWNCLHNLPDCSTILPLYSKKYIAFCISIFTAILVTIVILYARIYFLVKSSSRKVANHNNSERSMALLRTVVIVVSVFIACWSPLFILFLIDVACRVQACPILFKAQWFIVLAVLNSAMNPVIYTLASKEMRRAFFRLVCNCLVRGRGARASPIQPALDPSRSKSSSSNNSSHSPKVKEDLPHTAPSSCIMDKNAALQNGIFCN

One test deals with S1P1 (Homo sapiens (Human), UniProt P21453). Kind of test: Receptor [35S] GTPγS binding assay, S1P1. The note with it: in words, compared to Comparative Compound 20. The class given is biochemical. The procedure:
(§1) Receptor [^35S] GTPγS Binding Assays:
(§2) Compounds were loaded in a 384 Falcon v-bottom plate (0.5 μL/well in a 11 point, 3-fold dilution). Membranes prepared from S1P1/CHO cells or EDG3-Gal5-bla HEK293T cells (EDG3 equivalent S1P3) were added to the compound plate (40 μL/well, final protein 3 μg/well) with MULTIDROP®. [^35S]GTP (1250 Ci/mmol, Perkin Elmer) was diluted in assay buffer: 20 mM HEPES, pH7.5, 10 mM MgCl2, 150 mM NaCl, 1 mM EGTA(ethylene glycol tetraacetic acid), 1 mM DTT (dithiothreitol), 10 μM GDP, 0.1% fatty acid free BSA, and 10 μg/ml Saponin to 0.4 nM. 40 μL of the [^35S] GTP solution was added to the compound plate with a final concentration of 0.2 nM. The reaction was kept at room temperature for 45 min. At the end of incubation, all the mixtures in the compound plate were transferred to Millipore 384-well FB filter plates via the VELOCITY11® Vprep liquid handler. The filter plate was washed with water 4 times by using the manifold Embla plate washer and dried at 60° C. for 45 min. MicroScint 20 scintillation fluid (30 μL) was added to each well for counting on the Packard TOPCOUNT®. EC50 is defined as the agonist concentration that corresponds to 50% of the Ymax (maximal response) obtained for each individual compound tested.
A smaller value for GTPγS S1P1 EC50 value indicated greater activity for the compound in the GTPγS S1P1 binding assay. Thus the compounds of the present invention may be used in treating, preventing, or curing various S1P1 receptor-related conditions. The compounds have potential use in treating, preventing, or curing autoimmune and inflammatory diseases such as multiple sclerosis, rheumatoid arthritis, inflammatory bowel disease, lupus, psoriasis, or minimizing or reducing rejection of transplanted organs.
(GTPγS resists hydrolysis and so accumulates on activated G proteins.)
`CCCCCCCCc1ccc(CN2CCC(N)(COP(=O)(O)O)C2=O)cc1` (stereo not shown) [Example 14, (3-amino-1-(4-octylbenzyl)-2-oxopyrrolidin-3-yl)methyl dihydrogen phosphate]: the “GTPγS S1P1 EC50 value as compared to Comparative Compound 20” value was “significant improvement”.

Regarding `CCCCCCCCc1ccc(N2CCC(N)(COP(=O)(O)O)C2=O)c(C)c1` (stereo not shown) [Example 17, (3-amino-1-(2-methyl-4-octylphenyl)-2-oxopyrrolidin-3-yl)methyl dihydrogen phosphate], the “GTPγS S1P1 EC50 value as compared to Comparative Compound 20” value is given as “significant improvement”.

The test is the same for the next values; noted with them: membranes from S1P1/CHO cells; synthetically prepared phosphorylated compounds.
Consider `CCCCCCCCc1ccc(CN2CCC(N)(COP(=O)(O)O)C2=O)cc1` (stereo not shown) [Example 14, (3-amino-1-(4-octylbenzyl)-2-oxopyrrolidin-3-yl)methyl dihydrogen phosphate], for which the EC50 worked out at 0.041 µM.

With `CCCCCCCCc1ccc(N2CCC(N)(COP(=O)(O)O)C2)cc1` (stereo not shown) [compound 20, (3-amino-1-(4-octylphenyl)pyrrolidin-3-yl)methyl dihydrogen phosphate, reference compound], the midpoint of the response, the EC50, lay at 0.384 µM.

Compound `CCCCCCCCc1ccc(N2CCC(N)(COP(=O)(O)O)C2=O)c(C)c1` (stereo not shown) [Example 17, (3-amino-1-(2-methyl-4-octylphenyl)-2-oxopyrrolidin-3-yl)methyl dihydrogen phosphate] had an EC50 of 0.161 µM. Against the preceding compound, the EC50 is about 2.4-fold lower.

Compound `CCCCCCCCc1ccc(N2CCC(N)(COP(=O)(O)O)C2=O)cc1` (stereo not shown) [Example 18, (3-amino-1-(4-octylphenyl)-2-oxopyrrolidin-3-yl)methyl dihydrogen phosphate] registered an EC50 of 0.454 µM.

The target of the next test is S1P3 (EDG3) (Homo sapiens (Human), UniProt Q99500). Kind of test: Receptor [35S] GTPγS binding assay, S1P3. To be noted: membranes from EDG3-Gal5-bla HEK293T cells; synthetically prepared phosphorylated compounds. The test is classed as biochemical. Here is the method:
as §1, §2
As for `CCCCCCCCc1ccc(CN2CCC(N)(COP(=O)(O)O)C2=O)cc1` (stereo not shown) [Example 14, (3-amino-1-(4-octylbenzyl)-2-oxopyrrolidin-3-yl)methyl dihydrogen phosphate], the EC50 was greater than 30 µM.

With `CCCCCCCCc1ccc(N2CCC(N)(COP(=O)(O)O)C2)cc1` (stereo not shown) [compound 20, (3-amino-1-(4-octylphenyl)pyrrolidin-3-yl)methyl dihydrogen phosphate, reference compound], the EC50 was greater than 30 µM.

Compound `CCCCCCCCc1ccc(N2CCC(N)(COP(=O)(O)O)C2=O)c(C)c1` (stereo not shown) [Example 17, (3-amino-1-(2-methyl-4-octylphenyl)-2-oxopyrrolidin-3-yl)methyl dihydrogen phosphate] showed an EC50 greater than 60 µM.

Compound `CCCCCCCCc1ccc(N2CCC(N)(COP(=O)(O)O)C2=O)cc1` (stereo not shown) [Example 18, (3-amino-1-(4-octylphenyl)-2-oxopyrrolidin-3-yl)methyl dihydrogen phosphate] registered an EC50 greater than 60 µM.
